The values that follow come from patent US20090018194A1, “Use of antimicrobial agents derived from alliaceous plants for the prevention and control of crop diseases, post-harvest rot and as environmental disinifectant products” (DMC Research Center, S.L., priority 2007, published 2009).

The test system of data set [1] is apples (Golden Delicious and Red Chief varieties). In words: phytotoxicity on treated apples. Conditions: 450 ppm.
The test system of data set [2] is pears (Decana and Flor de Invierno varieties). In words: phytotoxicity on treated pears. Conditions: 450 ppm.
The test system of data set [3] is Botrytis cinerea. Kind of data set: post-harvest rotting of inoculated apples, drencher treatment. The note with it: 450 ppm, 15 days of refrigeration at 5-6° C. It counts as in vivo. Here is the method: (§1) The effectiveness of the active principle PTS (in various individual doses) was studied in the control of post-harvest rotting of pears and apples caused by the fungi Botrytis cinerea and Penicillium expansum, the principal agents of diseases in these fruits. These phytopathogens can appear in fruit being stored in a cold room and, once in the processing plant and in a later phase, form colonies and are transferred from one fruit to another by contact. The study was performed by means of a controlled inoculation test to ensure a high percentage of affected fruits, and to guarantee that this level of infection is with certainty caused by these pathogens, thereby making it possible to detect and evaluate significant differences between the different treatments. […] To perform the controlled inoculation, wild strains of Botrytris cinerea and Penicillium expansum were used which were isolated in fruit and vegetable processing plants. […] After the time indicated above had passed, the various post-harvest treatments were carried out by means of […] 25° C. for 60 seconds.

The test system of data set [4] is Penicillium expansum. The data set is described as above. In kind it is in vivo. Conditions: 450 ppm, 15 days of refrigeration at 5-6° C. Here is the method: as §1
Data set [5] concerns Botrytis cinerea. Kind of data set: post-harvest rotting of inoculated pears, drencher treatment. Conditions: 450 ppm, 15 days of refrigeration at 5-6° C. It counts as in vivo. Here is the method:
as §1

Data set [6] concerns Penicillium expansum. Described as above. In kind it is in vivo. Conditions: 450 ppm, 15 days of refrigeration at 5-6° C. Here is the method:
as §1

Data set [7] deals with Penicillium italicum CECT 2294. In words: agar diffusion test with impregnated cellulose discs. It counts as cell-based. Conditions: incl. 6 mm disc. For orientation: Agar diffusion results depend on both activity and mobility in agar.
Data set [8] deals with Trichoderma aureoviride CECT 20102. In words: agar diffusion test, commercial phytosanitaries. It counts as cell-based. Conditions: incl. 6 mm disc.
Data set [9] concerns Geotrichum candidum CECT 1902. In words: agar diffusion test, commercial phytosanitaries. Conditions: incl. 6 mm disc. It counts as cell-based.
For data set [10], the system named is Rhizopus stolonifer ATCC 24862. Kind of data set: agar diffusion test, commercial phytosanitaries. It counts as cell-based. The note with it: incl. 6 mm disc.

In the case of imazalil sulfate [reference compound], the “Phytotoxicity (number of damaged fruits)” value in data set [1] (Golden Delicious, fruit inoculated with Botrytis cinerea) was found to be 0; in data set [1] (Golden Delicious, fruit inoculated with Penicillium expansum), 0; in data set [1] (Red Chief, fruit inoculated with Botrytis cinerea) it was 0; in data set [1] (Red Chief, fruit inoculated with Penicillium expansum) it was 0; in [2] (Decana, fruit inoculated with Botrytis cinerea), 0; in data set [2] (Decana, fruit inoculated with Penicillium expansum), 0. The “Phytotoxicity (number of damaged fruits)” value is on record as 0 in data set [2] (Flor de invierno, fruit inoculated with Botrytis cinerea) and 0 in data set [2] (Flor de invierno, fruit inoculated with Penicillium expansum). Also, the “% of fruit affected” value in the data set on Botrytis cinerea [3] (Golden Delicious) was found to be 10%; with Botrytis cinerea [3] (Red Chief), 12%; in the data set with Penicillium expansum [4] (Golden Delicious), 4.3%; with Penicillium expansum [4] (Red Chief), 6.2%; with Botrytis cinerea [5] (Decana), 19%; with Botrytis cinerea [5] (Flor de invierno) it was 24%. Further, the “% of fruit affected” value with Penicillium expansum [6] (Decana) is listed as 4.5%; in the data set on Penicillium expansum [6] (Flor de invierno) it was 6.7%.
Take `c1ccc(-c2ccccc2)cc1` [Biphenyl]: the “diameter of the microbial inhibition halo” value is recorded as 7 mm in [7] (4000 ppm active principle); 8 mm in [7] (6000 ppm active principle); 0 mm in data set [8] (4000 ppm active principle); 0 mm in [8] (6000 ppm active principle); 0 mm in [9] (4000 ppm active principle); 0 mm in [9] (6000 ppm active principle). Besides, the “diameter of the microbial inhibition halo” value in data set [10] (4000 ppm active principle) and in data set [10] (6000 ppm active principle) was 0 mm throughout.
Regarding `Oc1ccccc1-c1ccccc1` [o-pheynl phenol], the “diameter of the microbial inhibition halo” value in data set [7] (4000 ppm active principle) was found to be 45 mm; in data set [7] (6000 ppm active principle), 45 mm; in [8] (4000 ppm active principle), 40 mm; in [8] (6000 ppm active principle) it was 42 mm; in data set [9] (4000 ppm active principle) it was 45 mm; in data set [9] (6000 ppm active principle), 47 mm. In addition, the “diameter of the microbial inhibition halo” value in data set [10] (4000 ppm active principle) was found to be 14 mm; in data set [10] (6000 ppm active principle) it was 15 mm.
